# Activity calls are given as the source filed them.
# How the values were obtained:
# [1] = target: T1, Low molecular weight phosphotyrosine protein phosphatase (Homo sapiens, UniProt P24666); type: functional; conditions: read-out: IC50_Mean;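 also: Dose-response confirmation assay measuring inhibition of LMPTP enzyme activity by fluorescence intensity read-out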
# T1 sequence (P24666 whole entry): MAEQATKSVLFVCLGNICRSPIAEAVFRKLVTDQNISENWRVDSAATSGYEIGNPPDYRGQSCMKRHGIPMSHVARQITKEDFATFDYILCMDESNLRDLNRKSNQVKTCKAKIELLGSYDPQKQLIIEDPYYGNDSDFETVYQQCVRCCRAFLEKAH
# [2] = target: T2, Ubiquitin-conjugating enzyme E2 N (Homo sapiens, UniProt P61088); type: functional;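 also: Dose-response confirmation in a TR-FRET assay detecting UBC13-driven polyubiquitin chain formation, inhibition measured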
# T2 sequence (P61088 whole entry): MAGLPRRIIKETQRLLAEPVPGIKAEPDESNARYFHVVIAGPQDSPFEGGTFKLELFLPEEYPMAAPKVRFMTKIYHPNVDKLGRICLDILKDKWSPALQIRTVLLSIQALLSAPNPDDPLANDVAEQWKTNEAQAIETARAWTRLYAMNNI
# [3] = target: T3, DNA repair and recombination protein RAD54-like (Homo sapiens, UniProt Q92698); experiment: inhibitors of human RAD54 branch migration, confirmation, biochemical, fluorescence, cherry-picked samples, dose series (AID 651657); type: functional
# T3 sequence (Q92698 whole entry): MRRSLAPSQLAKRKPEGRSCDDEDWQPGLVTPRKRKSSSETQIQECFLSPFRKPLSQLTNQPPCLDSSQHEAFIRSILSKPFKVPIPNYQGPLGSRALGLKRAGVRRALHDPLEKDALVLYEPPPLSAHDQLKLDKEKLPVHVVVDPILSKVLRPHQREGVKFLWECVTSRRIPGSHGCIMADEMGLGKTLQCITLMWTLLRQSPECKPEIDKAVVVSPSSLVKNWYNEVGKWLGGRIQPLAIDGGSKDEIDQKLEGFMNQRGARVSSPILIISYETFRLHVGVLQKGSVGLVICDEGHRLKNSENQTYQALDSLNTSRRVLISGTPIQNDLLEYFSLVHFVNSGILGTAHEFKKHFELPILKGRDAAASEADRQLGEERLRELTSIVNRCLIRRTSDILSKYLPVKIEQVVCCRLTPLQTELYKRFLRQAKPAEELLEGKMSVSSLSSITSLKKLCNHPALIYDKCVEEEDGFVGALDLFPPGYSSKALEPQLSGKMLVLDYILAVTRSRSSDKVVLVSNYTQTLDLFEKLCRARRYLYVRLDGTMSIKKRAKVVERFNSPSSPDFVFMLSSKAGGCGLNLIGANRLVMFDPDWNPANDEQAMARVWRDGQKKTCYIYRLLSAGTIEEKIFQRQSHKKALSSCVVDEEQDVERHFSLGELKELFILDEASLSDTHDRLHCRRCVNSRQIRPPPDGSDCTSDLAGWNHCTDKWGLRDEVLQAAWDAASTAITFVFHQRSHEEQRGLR
# [4] = target: T4, Protein skinhead-1 (Caenorhabditis elegans, UniProt P34707); type: functional
# T4 sequence (P34707 whole entry): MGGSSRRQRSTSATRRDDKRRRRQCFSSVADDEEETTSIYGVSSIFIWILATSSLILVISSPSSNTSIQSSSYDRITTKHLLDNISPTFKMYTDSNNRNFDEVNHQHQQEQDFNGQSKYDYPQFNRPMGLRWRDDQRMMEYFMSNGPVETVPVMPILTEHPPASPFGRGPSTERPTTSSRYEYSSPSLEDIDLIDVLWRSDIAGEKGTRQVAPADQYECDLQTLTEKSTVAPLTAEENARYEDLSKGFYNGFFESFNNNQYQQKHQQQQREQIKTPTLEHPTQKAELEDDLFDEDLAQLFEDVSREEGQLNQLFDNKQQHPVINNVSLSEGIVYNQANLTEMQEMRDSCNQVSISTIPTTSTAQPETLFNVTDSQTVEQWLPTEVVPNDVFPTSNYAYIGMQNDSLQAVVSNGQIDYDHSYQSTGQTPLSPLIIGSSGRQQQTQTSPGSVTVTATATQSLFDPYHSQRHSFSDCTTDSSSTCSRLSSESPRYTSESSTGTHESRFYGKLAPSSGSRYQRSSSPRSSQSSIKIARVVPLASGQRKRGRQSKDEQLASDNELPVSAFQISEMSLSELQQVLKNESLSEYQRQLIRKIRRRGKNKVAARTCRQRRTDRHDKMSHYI
# [5] = target: T5, Beta-galactosidase (Escherichia coli, UniProt Q8VNN2); experiment: PubChem AID 485352; type: functional
# [6] = target: T6, Type-1 angiotensin II receptor (Homo sapiens, UniProt P30556); experiment: AT1 receptor antagonists, dose response, selectivity assay for APJ receptor antagonist project, cell-based, uHTS hits (AID 463214); type: functional;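 also: antagonist potency against angiotensin II stimulated AT1 response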
# T6 sequence (P30556 whole entry): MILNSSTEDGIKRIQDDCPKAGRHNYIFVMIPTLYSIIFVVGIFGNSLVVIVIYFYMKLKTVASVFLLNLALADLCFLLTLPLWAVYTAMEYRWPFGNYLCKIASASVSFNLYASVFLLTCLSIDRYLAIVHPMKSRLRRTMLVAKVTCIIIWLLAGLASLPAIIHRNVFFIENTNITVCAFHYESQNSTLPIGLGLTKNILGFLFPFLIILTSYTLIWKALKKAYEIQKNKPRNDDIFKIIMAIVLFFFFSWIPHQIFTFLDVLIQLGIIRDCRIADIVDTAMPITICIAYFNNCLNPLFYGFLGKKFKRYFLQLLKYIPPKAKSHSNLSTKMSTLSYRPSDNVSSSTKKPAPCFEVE
# [7] = target: T5, Beta-galactosidase; experiment: Dose response counterscreen for EBI2 assay utilizing the enzyme, b-galactosidase.; type: functional
# [8] = target: T7, Adenosylmethionine-8-amino-7-oxononanoate aminotransferase (Mycobacterium tuberculosis, UniProt P9WQ81); experiment: Mycobacterium tuberculosis BioA enzyme inhibitor Measured in Biochemical System Using Plate Reader - 2163-02_Inhibitor_Dose_CherryPick_Activity.; type: functional, Mycobacterium tuberculosis UT205
# T7 sequence (P9WQ81 whole entry): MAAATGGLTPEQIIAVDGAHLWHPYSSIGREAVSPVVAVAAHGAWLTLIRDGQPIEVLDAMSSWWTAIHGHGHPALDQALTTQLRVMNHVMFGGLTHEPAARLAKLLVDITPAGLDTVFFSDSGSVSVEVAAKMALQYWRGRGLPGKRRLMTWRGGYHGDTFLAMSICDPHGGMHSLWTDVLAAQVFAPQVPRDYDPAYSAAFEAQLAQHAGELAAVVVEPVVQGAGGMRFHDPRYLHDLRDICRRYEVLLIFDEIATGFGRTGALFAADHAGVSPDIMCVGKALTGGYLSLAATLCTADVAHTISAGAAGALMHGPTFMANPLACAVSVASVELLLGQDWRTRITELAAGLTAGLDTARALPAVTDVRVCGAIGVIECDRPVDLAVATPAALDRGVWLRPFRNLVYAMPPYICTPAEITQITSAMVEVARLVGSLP
# [9] = cytotoxicity toward NIH3T3 fibroblasts, dose response, counter-screen, cell-based, ATP luminescence, mouse fibroblasts (AID 2010); type: functional;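 also: cells exposed to compound for about 90 hours before reading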
# [10] = inhibitors of intracellular T. cruzi replication, confirmation, NIH3T3 host cells, beta-gal luminescence (AID 2044); type: functional, cell-based;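 also: intracellular parasites grown in NIH/3T3 mouse fibroblasts as host cells; luminescent beta-galactosidase reporter signal from transgenic T. cruzi replicating inside host cells; inhibitors lower the luminescence signal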
# [11] = target: T8, DNA repair protein RAD52 homolog (Homo sapiens, UniProt P43351); type: functional, biochemical
# T8 sequence (P43351 whole entry): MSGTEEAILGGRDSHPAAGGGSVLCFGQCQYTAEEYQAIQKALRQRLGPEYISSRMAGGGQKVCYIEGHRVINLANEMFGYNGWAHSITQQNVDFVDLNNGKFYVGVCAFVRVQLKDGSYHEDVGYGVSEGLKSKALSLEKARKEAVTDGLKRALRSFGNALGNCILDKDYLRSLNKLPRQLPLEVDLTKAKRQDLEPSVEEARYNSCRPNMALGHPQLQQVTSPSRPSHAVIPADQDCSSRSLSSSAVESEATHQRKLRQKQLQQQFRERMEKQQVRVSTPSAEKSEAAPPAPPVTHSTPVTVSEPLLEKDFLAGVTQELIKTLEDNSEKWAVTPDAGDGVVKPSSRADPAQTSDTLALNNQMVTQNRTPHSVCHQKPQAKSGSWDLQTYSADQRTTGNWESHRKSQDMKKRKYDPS
# [12] = HEp-2 cell cytotoxicity, dose response, cytotoxicity control for RSV inhibitor project, HTS (AID 2410); type: functional; conditions: human respiratory syncytial virus
# [13] = target: Paired box protein Pax-8 (Homo sapiens, UniProt Q06710); experiment: inhibitors of PAX8-driven TPO luciferase reporter, dose response, RMG-I cells, cherry-pick (AID 687027); type: functional, cell-based;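 also: luciferase reporter driven by Pax8 target thyroperoxidase promoter measured by SteadyGlo luminescence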
# [14] = control 3'UTR Renilla luciferase suppression, dose response, counter-screen for Shn3 inhibitor project, cell-based, Clone20-Shn3RL, cherry-picked (AID 624133); type: functional
# [15] = Shn3 3'UTR reporter inhibitors, dose response, cell-based, Clone20 osteoblasts, firefly luciferase, cherry-picked (AID 624132); type: functional;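 also: firefly luciferase luminescence from reporter carrying the Shn3 3'UTR in osteoblasts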
# [16] = tested on: HEK293; experiment: inhibitors of LMP1-driven NF-kB reporter, dose response, cell-based, HEK293, luciferase, cherry-pick (AID 588343); type: functional; conditions: Homo sapiens
# [17] = target: T9, Corticotropin-releasing factor receptor 2/Corticotropin-releasing factor-binding protein (Homo sapiens, UniProt P24387+Q13324); experiment: activators of CRF receptor 2 with binding protein – uHTS hits, confirmation (AID 602473); type: functional; conditions: read-out: EC50_Mean
# T9 sequence (Q13324 whole entry): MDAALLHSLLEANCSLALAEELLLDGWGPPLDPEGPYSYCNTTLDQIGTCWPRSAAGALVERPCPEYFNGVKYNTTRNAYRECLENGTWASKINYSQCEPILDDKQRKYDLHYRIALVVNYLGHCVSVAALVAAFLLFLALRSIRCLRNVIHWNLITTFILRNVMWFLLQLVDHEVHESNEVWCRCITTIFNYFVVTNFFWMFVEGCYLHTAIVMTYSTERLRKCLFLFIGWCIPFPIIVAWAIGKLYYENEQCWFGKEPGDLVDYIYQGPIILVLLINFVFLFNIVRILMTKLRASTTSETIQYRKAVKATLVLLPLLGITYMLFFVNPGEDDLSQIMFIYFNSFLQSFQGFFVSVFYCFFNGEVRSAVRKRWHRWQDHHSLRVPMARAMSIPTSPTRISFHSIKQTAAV
# T9 sequence (P24387 whole entry): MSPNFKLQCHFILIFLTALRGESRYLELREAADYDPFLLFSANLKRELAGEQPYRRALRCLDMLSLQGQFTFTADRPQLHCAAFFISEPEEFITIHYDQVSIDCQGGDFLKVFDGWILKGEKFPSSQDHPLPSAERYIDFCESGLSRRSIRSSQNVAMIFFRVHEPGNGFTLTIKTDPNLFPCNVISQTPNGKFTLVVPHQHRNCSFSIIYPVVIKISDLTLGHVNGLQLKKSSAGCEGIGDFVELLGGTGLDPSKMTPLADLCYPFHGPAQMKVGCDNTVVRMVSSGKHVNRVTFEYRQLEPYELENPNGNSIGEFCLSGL
# [18] = target: Genome polyprotein (dengue virus type 2, UniProt P29990); experiment: Dengue-2 NS5 methyltransferase inhibitors, primary screen, biochemical, confirmation dose response (AID 588689); type: functional
# Chain of Genome polyprotein (P29990 2492-3391 limits assumed): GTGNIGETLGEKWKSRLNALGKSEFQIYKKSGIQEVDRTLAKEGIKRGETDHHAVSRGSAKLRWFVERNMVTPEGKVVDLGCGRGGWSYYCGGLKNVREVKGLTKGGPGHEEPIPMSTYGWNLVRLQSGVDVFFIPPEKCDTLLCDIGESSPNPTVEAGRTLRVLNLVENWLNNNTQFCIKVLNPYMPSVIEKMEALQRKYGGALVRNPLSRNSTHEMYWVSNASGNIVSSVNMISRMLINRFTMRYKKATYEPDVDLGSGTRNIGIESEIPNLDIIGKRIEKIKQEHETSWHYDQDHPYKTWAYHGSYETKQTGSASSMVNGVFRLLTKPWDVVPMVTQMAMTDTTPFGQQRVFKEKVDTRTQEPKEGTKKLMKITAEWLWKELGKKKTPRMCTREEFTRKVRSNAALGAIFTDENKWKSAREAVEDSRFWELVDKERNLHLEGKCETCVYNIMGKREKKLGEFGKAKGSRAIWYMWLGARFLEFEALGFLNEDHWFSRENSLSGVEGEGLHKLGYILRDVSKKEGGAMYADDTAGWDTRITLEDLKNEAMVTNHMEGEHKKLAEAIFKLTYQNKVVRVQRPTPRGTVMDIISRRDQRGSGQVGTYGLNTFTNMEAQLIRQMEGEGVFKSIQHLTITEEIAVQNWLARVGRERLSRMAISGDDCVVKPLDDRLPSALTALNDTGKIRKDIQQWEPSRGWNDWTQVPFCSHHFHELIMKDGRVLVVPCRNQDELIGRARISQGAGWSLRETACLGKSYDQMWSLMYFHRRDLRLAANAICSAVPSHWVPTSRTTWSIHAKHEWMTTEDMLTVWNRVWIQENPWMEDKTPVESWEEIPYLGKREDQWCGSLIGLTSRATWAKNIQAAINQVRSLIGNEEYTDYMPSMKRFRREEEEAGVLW
# T5 sequence (Q8VNN2 whole entry): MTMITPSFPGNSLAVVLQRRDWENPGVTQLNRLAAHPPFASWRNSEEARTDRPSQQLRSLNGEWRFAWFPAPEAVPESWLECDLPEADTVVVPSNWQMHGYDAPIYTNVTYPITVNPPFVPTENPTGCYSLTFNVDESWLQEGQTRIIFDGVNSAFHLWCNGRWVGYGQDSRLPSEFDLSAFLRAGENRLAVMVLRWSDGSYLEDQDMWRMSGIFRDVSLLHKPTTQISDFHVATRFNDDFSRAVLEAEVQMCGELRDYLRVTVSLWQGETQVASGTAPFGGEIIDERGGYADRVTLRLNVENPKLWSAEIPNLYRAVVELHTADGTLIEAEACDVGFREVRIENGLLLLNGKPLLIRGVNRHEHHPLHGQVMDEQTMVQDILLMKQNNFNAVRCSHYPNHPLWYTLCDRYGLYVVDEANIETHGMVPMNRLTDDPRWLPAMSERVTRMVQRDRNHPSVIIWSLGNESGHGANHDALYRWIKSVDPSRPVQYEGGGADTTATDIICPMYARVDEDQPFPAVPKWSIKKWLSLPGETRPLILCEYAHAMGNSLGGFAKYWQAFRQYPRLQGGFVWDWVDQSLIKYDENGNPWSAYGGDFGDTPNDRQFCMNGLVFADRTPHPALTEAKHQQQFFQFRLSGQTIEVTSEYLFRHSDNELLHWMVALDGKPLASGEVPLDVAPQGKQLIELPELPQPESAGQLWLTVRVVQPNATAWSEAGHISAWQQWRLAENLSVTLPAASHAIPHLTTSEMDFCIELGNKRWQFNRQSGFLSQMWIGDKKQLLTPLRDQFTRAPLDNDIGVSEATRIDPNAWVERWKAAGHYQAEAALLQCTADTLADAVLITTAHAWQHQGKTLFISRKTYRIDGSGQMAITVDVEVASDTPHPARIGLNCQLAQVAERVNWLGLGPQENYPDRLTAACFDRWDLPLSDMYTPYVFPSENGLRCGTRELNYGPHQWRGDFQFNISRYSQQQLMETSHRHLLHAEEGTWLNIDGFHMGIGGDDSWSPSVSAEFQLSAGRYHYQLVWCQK
# Chain of Paired box protein Pax-8 (Q06710 whole entry): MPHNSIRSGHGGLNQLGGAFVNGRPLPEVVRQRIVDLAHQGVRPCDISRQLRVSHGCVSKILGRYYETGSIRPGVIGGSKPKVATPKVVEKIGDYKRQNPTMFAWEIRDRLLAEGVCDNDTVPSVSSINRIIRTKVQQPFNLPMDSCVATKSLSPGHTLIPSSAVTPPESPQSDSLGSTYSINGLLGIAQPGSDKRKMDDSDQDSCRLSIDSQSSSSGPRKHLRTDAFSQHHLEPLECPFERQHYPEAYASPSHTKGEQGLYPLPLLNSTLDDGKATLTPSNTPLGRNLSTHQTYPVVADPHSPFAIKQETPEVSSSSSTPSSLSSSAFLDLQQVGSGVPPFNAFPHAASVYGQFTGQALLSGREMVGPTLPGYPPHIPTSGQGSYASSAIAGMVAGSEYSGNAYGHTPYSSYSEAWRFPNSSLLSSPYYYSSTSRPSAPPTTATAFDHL
compound,measurement,setting,value
Cn1c(CCN2CCN(c3ccccn3)CC2)nc2cc(NC(=O)COc3ccc([N+](=O)[O-])cc3)ccc21,IC50,[1],8.47 µM (active)
Cc1nc2ccccc2c2oc(C(=O)N3CCC(N4CCCCC4)CC3)cc12,IC50,[2],> 20 µM (inactive)
same,AC50,[3],23.1 µM (active)
NC(=O)C1CCCN(C(=O)NC2CCCCC2)C1 (centres undefined),IC50,[4],> 100 µM (inactive)
COc1ccc(NC(=O)Nc2cccc3c2O[C@@H](CN(C)CC2CCCCC2)[C@@H](C)CN([C@H](C)CO)C3=O)cc1,EC50,[5],> 40 µM (inactive)
same,IC50,[6],> 40 µM (not active)
O=C(c1ccc(-n2cnnn2)cc1)N1CCN(C(c2ccccc2)c2ccccc2)CC1,IC50,[7],> 80 µM (inactive)
CC1=C(C#N)C(c2cccnc2)C2=C(O)CC(c3ccc(Cl)cc3)CC2=N1 (centres undefined),AC50,[8],0.67 µM (active)
same,EC50,[9],21.8 µM (active)
same,EC50,[10],2.26 µM (active)
Cc1ccc(/C=C/c2ccc3cccc(O)c3n2)s1,IC50,[4],> 100 µM (inactive)
Clc1ccc(-c2csc(-c3ccncc3)n2)cc1,IC50,[4],4.45 µM (active)
CCN1CCN(C(S)=Nc2ccc3nc(N4CCN(C)CC4)cc(C)c3c2)CC1,AC50,[11],4.49 µM (active)
same,AC50,[3],91.2 µM (active)
O=C(Nc1ccc(F)c(F)c1)c1ccc(-n2cncn2)c([N+](=O)[O-])c1,AC50,[8],1.49 µM (active)
same,CC50,[12],18.3 µM (active)
COc1ccccc1-n1cc([C@@H]2C[C@H]3CN(c4ccccc4)C(=O)[C@]34CCCN24)cn1,IC50,[4],> 100 µM (inactive)
same,AC50,[13],5.21 µM (active)
same,AC50,[14],1.8 µM (active)
same,AC50,[15],1.46 µM (active)
same,AC50,[16],19 µM (active)
O=C(CN1CCCCC1)n1c2ccccc2c2ccccc21,AC50,[11],5.64 µM (active)
same,AC50,[3],12.1 µM (active)
O=C1OCC(CO)(CO)N=C1NNc1cc(Cl)ccc1Cl,EC50,[5],> 40 µM (inactive)
same,IC50,[6],12.1 µM (active)
C=C(C)CSc1nc(N)c2c3c(sc2n1)CCC3,AC50,[8],18.2 µM (active)
same,EC50,[17],> 53 µM (inactive)
O=C(COc1ccc(Br)cc1)N1CCN(C2CCCC2)CC1,IC50,[7],> 80 µM (inactive)
CCn1c2ccccc2c2cc(/C=N/NC(=O)c3ccccc3)ccc21,AC50,[16],3.99 µM (active)
COc1ccccc1S(=O)(=O)N1CC[C@@H]2[C@H](CO)Nc3ccc(-c4cccc(C#N)c4)cc3[C@@H]21,AC50,[8],18.5 µM (active)
CC(C)(C)c1nnc(N/N=C/c2ccc(Br)cc2)n(N)c1=O,IC50,[7],> 80 µM (inactive)
N#C/C(=C\c1ccc(C#N)cc1)C(=O)c1ccccc1,IC50,[18],> 100 µM (active)
S=C(N/N=C/c1ccccc1)N1CCOCC1,EC50,[5],> 40 µM (inactive)
same,IC50,[6],13.3 µM (active)

# Reference: ChEMBL document CHEMBL1201862, “PubChem BioAssay data set” (2004)
